System: platelets in whole blood
Assay: Blood coagulability measurement of whole blood by dielectric constant (dielectric coagulometer, DiCA-Ex / DiCA-In)
Type: cell-based, human (healthy subject)
Protocol: Measurement of blood coagulability was conducted using the blood put to reaction in the experiment of 3-2 above. The measurement was carried out using a blood coagulation system analyzing device (dielectric coagulometer prototype No. 2), for performing the measurement of dielectric constant of the sample as aforementioned, and a comprehensive hemostatic ability measuring system ROTEM (registered trademark), at a measurement temperature of 37° C.
In the case of the blood coagulation system analyzing device, measurement of DiCA-Ex to which an aqueous calcium solution (0.2 M Ca) and a commercialized extrinsic stimulus reagent (100 fold dilution+PBS (v/v=1/5)) were added immediately before the start of measurement, and measurement of DiCA-In to which an aqueous calcium solution (0.2 M Ca) and a commercialized intrinsic stimulus reagent (+PBS(v/v=1/5)) were added, were conducted. The amount was unifiedly set to be 12 uL per 180 uL of blood.
The time of 10 minutes determinative of coagulation time was taken as an investigation time (FIG. 12-1), the maximum value was taken as 1, and the reciprocal of the difference therefrom was calculated (calculated CF), the results being depicted in FIG. 12-2. An average value obtained in the case where NaCl was added (control) was 17.7, whereas an average value obtained in the case where the platelet inducing substance was added was 12.7 (n=4).

thrombin receptive activated protein [TRAP]
amplitude of time variation in dielectric constant (normalized) at 100 kHz (whole blood, versus +NaCl control): the amplitude is raised

CCCCC[C@H](O)/C=C/[C@H]1[C@H](O)CC(=O)[C@@H]1CCCCCCC(=O)O [prostaglandin E1]
difference between control and platelet inducing substance (platelet contribution part) (combination with ADP): this difference is reduced

Source: patent US20190049428A1, “PLATELET AGGREGABILITY ANALYZING DEVICE, PLATELET AGGREGABILITY ANALYZING SYSTEM, PLATELET AGGREGABILITY ANALYZING PROGRAM, AND METHOD OF ANALYZING PLATELET AGGREGABILITY” (Sony Corporation, priority 2016, published 2019)
